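In this assay, cells in 96-well plates receive the compound at five concentrations for 48 hours. Endpoints are linearly interpolated between the surrounding concentrations. At the GI50, growth is halved. TGI: concentration producing complete growth inhibition.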
Key:
Assay in all cases: NCI tumour cell line growth inhibition, 48 h
RXF-631 renal = tested on: RXF-631 renal
LXFL 529 NSCLC = tested on: LXFL 529 NSCLC
M19-MEL melanoma = tested on: M19-MEL melanoma
SR leukemia = tested on: SR leukemia
P388/ADR leukemia = tested on: P388/ADR leukemia
P388 leukemia = tested on: P388 leukemia
SN12K1 renal = tested on: SN12K1 renal
786-0 renal = tested on: 786-0 renal
MDA-N = tested on: MDA-N

Molecule `c1ccc2c(c1)nc1n2CSC1` has a TGI (RXF-631 renal) greater than 100 µM, a TGI (LXFL 529 NSCLC) greater than 100 µM and a TGI (M19-MEL melanoma) greater than 100 µM.

`CC1=C[C@]2(CC(C)C3C(CC4(C)C5CCC6C(C)(C)C(=O)CC[C@@]67C[C@@]57CC[C@]34C)O2)OC1=O` (stereo partly specified) showed a TGI (SR leukemia) greater than 100 µM, a TGI (RXF-631 renal) of 30.5 µM and a TGI (LXFL 529 NSCLC) greater than 100 µM.

For `Cc1nc2ccccc2c(=O)n1CC(=O)O`, the TGI (P388/ADR leukemia) was greater than 100 µM, the TGI (P388 leukemia) was greater than 100 µM and the TGI (SN12K1 renal) was greater than 100 µM. It also gave a TGI (M19-MEL melanoma) greater than 100 µM.

`CCN(CC)CCCC(Nc1c2ccc(Cl)cc2nc2ccc(OC)cc12)c1ccc(F)cc1` (stereo unspecified) was tested, and the GI50 (SR leukemia) was 2.19 µM and the TGI (SR leukemia) was 5.88 µM.

`Cc1cccc2c(N)c3cccc(C(=O)NCCN(C)C)c3nc12` gave a TGI (SR leukemia) of 0.0347 µM.

`CCCCN(CCCC)CCCCNc1c(C)cnc2cc(Cl)ccc12` was tested, and the TGI (RXF-631 renal) was 33.5 µM, the TGI (786-0 renal) was 32.1 µM and the TGI (LXFL 529 NSCLC) was greater than 100 µM. The TGI (M19-MEL melanoma) was greater than 100 µM.

`Nc1ncnc2c1ncn2C1CCC(CO)O1` (stereo unspecified) showed a TGI (P388/ADR leukemia) greater than 77.4 µM, a TGI (P388 leukemia) greater than 100 µM and a TGI (SN12K1 renal) greater than 69.5 µM. For the same molecule, the TGI (M19-MEL melanoma) was greater than 100 µM.

`[C-]#[O+].[Cl][Sn]([Cl])[Cl].[Cl][Sn]([Cl])[Cl].[Pt].c1ccncc1` was tested, and the GI50 (P388/ADR leukemia) was 35.4 µM, the TGI (P388/ADR leukemia) was greater than 100 µM and the GI50 (P388 leukemia) was 33.4 µM. The TGI (P388 leukemia) was greater than 100 µM, the GI50 (SN12K1 renal) was greater than 75.6 µM and the TGI (SN12K1 renal) was greater than 100 µM.

Work on `CO/N=C1/c2sccc2[C@H](NC(=O)C(F)(F)F)[C@@H]1O` yielded a TGI (SR leukemia) greater than 100 µM and a TGI (MDA-N) greater than 100 µM.

For `CCOc1ccc(/C=C/[N+](=O)[O-])cc1`, the GI50 (SR leukemia) was 2.56 µM and the TGI (SR leukemia) was 6.37 µM.

Work on `CC(/C=C/c1ccc([N+](=O)[O-])o1)=N/N1CC(CN2CCOCC2)OC1=O` (stereo unspecified) yielded a TGI (SR leukemia) of 50.4 µM, a TGI (786-0 renal) greater than 100 µM and a TGI (MDA-N) of 35.6 µM.

`CCOP(=O)(OCC)C(Cc1ccc(OC)c(OC)c1)N=C(c1ccccc1)c1ccccc1` (stereo unspecified) showed a TGI (SR leukemia) of 46.4 µM and a TGI (MDA-N) greater than 100 µM.

`CC(C)=CCc1c(C)cc2cc3c(c(O)c2c1O)C(O)=CC(=O)C3(CC=C(C)C)C/C=C(\C)CO` (stereo unspecified) showed a TGI (P388/ADR leukemia) of 80 µM, a TGI (P388 leukemia) of 101 µM and a TGI (SN12K1 renal) of 62 µM. For the same molecule, the TGI (M19-MEL melanoma) was 79.9 µM.

Work on `COc1cc2c3c(n(CCN(C)C)c(=O)c2cc1OC)-c1cc2c(cc1C3=O)OCO2` yielded a TGI (786-0 renal) greater than 100 µM.

`CC(C)=CC(=O)OC1C2C(C)C(=O)OC2C(O)C(C)C2C=CC(=O)C21C` (stereo unspecified) was tested, and the TGI (P388/ADR leukemia) was 4.01 µM, the TGI (P388 leukemia) was 1.29 µM and the TGI (SN12K1 renal) was 6.28 µM. The TGI (M19-MEL melanoma) was 8.42 µM.

Work on `C[C@]12C=CC(=O)C=C1CC[C@@H]1[C@@H]2C(=O)C[C@@]2(C)[C@H]1CC[C@]2(O)C(=O)CO` yielded a TGI (SR leukemia) greater than 100 µM, a TGI (786-0 renal) greater than 100 µM and a TGI (MDA-N) greater than 100 µM.

`Cc1ccc(S(=O)(=O)Oc2cc(S(=O)(=O)O)cc3cc(S(=O)(=O)O)cc(N)c23)cc1` showed a TGI (SR leukemia) greater than 100 µM, a TGI (786-0 renal) greater than 100 µM and a TGI (MDA-N) greater than 100 µM.
